Measurements as given in patent US10087188B2, “Benzamide imidazopyrazine Btk inhibitors” (MERCK SHARP & DOHME CORP., priority 2014, dated 2018).
Where two headings read alike, the source gives them in different places.

Columns and labels:
[1] = molecular target: BTK enzyme (recombinant full-length BTK, hBTK) (Homo sapiens (Human), UniProt Q06187); assay: Btk enzyme activity assay, LANCE TR-FRET; assay type: biochemical; conditions: 50 pM hBTK, 2 μM biotin-A5-peptide, 25 μM ATP; 60 minute compound & enzyme incubation; read-out: BTK binding IC50
Protocol: Btk Enzyme Activity Assay Methods
BTK enzymatic activity was determined with the LANCE (Lanthanide Chelate Excite) TR-FRET (Time-resolved fluorescence resonance energy transfer) assay. […] After 60 minutes incubation with detection reagents, reaction plates were read on a PerkinElmer EnVision plate reader using standard TR-FRET protocol.

[2] = test system: HeLa cells; assay: [3H] Adenosine uptake assay; assay type: cell-based; conditions: accumulation of tritiated adenosine into HeLa cells, compound concentration range 10 μM to 0.032 nM, read-out: ADU inhibition IC50 (adenosine uptake inhibition potency)
Summary of the method: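 HeLa cells in HBSS + 5% FBS preincubated 30 min at ambient temperature with compound (0.25% DMSO), then [3H]adenosine (500 nM stock) added for 60 min. Uptake measured by scintillation proximity counting; IC50 from 4-parameter fit of counts vs log concentration.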

BTK enzyme (recombinant full-length BTK, hBTK), sequence (Q06187 whole entry): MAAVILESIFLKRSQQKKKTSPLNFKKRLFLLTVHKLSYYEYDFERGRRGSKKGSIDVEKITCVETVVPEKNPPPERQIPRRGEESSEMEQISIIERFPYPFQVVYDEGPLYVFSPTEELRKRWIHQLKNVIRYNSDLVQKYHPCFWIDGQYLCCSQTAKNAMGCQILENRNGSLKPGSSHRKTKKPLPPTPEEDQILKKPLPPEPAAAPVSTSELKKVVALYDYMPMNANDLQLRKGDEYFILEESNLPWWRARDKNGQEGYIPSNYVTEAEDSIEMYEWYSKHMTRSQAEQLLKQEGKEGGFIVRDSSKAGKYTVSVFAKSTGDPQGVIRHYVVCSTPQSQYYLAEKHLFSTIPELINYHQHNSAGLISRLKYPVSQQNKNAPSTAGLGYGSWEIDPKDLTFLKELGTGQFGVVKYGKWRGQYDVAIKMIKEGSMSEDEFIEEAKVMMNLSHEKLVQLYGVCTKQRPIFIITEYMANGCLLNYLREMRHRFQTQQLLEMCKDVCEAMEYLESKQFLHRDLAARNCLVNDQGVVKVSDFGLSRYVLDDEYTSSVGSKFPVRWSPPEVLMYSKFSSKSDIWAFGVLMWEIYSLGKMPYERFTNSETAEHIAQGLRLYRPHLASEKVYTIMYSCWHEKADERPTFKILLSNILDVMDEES

SMILES	IC50 [1]	IC50 ([2]; Homo sapiens, HeLa)	IC50 [2]
Nc1nccn2c(C34CC(C(=O)O)(C3)C4)nc(-c3ccc(C(=O)Nc4cc(C(F)(F)F)ccn4)cc3)c12 [Example 34, 3-[8-amino-1-(4-{[4-(trifluoromethyl)pyridin-2-yl]carbamoyl}phenyl)imidazo[1,5-a]pyrazin-3-yl]bicyclo[1.1.1] pentane-1-carboxylic acid]	0.39 nM	6480 nM	
CCOc1cc(C(=O)Nc2cc(C(F)(F)F)ccn2)ccc1-c1nc([C@H]2CC[C@@](C(=O)O)(C(C)C)C2)n2c(Cl)cnc(N)c12 [Example 111, (1S,3S)-3-[8-amino-5-chloro-1-(2-ethoxy-4-{[4-(trifluoromethyl)pyridin-2-yl]carbamoyl}phenyl)imidazo[1,5-a]pyrazin-3-yl]-1-(1-methylethyl) cyclopentane-carboxylic acid]	24.9 nM	10000 nM	
CCOc1cc(C(=O)Nc2cc(C(F)(F)F)n(C)n2)ccc1-c1nc([C@H]2CC[C@@](C(=O)O)(C(C)C)C2)n2ccnc(N)c12 [Example 53, (1S,3S)-3-[8-amino-1-(2-ethoxy-4-{[1-methyl-5-(trifluoromethyl)-1H-pyrazol-3-yl]carbamoyl}phenyl)imidazo[1,5-a]pyrazin-3-yl]-1-(1-methylethyl) cyclopentane-carboxylic acid]	0.87 nM	10000 nM	
CC(C)(C(=O)O)C1CCC(c2nc(-c3ccc(C(=O)Nc4cc(C(F)(F)F)ccn4)cc3)c3c(N)nccn23)C1 (centres unmarked) [Example 97, 2-{3-[8-amino-1-(4-{[4-(trifluoromethyl)pyridin-2-yl]carbamoyl}phenyl)imidazo[1,5-a]pyrazin-3-yl]cyclopentyl}-2-methylpropanoic acid]	0.87 nM		7530 nM
CCOc1cc(C(=O)Nc2cc(C(F)(F)F)ccn2)ccc1-c1nc([C@@H]2CC[C@@](C(=O)O)(C(C)C)C2)n2c(Cl)cnc(N)c12 [Example 109, (1S,3R)-3-[8-amino-5-chloro-1-(2-ethoxy-4-{[4-(trifluoromethyl)pyridin-2-yl]carbamoyl}phenyl)imidazo[1,5-a]pyrazin-3-yl]-1-(1-methylethyl)cyclo-pentanecarboxylic acid]	0.64 nM	6840 nM	
CC(C)(C(=O)O)C1CCC(c2nc(-c3ccc(C(=O)Nc4cc(C(F)(F)F)ccn4)cc3)c3c(N)nccn23)C1 (centres unmarked) [Example 96, 2-{3-[8-amino-1-(4-{[4-(trifluoromethyl)pyridin-2-yl]carbamoyl}phenyl)imidazo[1,5-a]pyrazin-3-yl]cyclopentyl}-2-methylpropanoic acid]	4 nM		10000 nM

Further lines, results first:

IC50 [1]	IC50 ([2]; Homo sapiens, HeLa)	IC50 [2]	SMILES
3.9 nM	10000 nM		CCOc1cc(C(=O)Nc2cc(C(F)(F)F)ccn2)ccc1-c1nc(C23CCC(C(=O)O)(CC2O)C(O)C3)n2ccnc(N)c12 (centres unmarked) [Example 174, 4-(8-amino-1-(2-ethoxy-4-((4-(trifluoromethyl)pyridin-2-yl)carbamoyl)phenyl)imidazo[1,5-a]pyrazin-3-yl)-2,5-dihydroxybicyclo[2.2.2]octane-1-carboxylic acid]
1 nM	5230 nM		CC1(C(=O)O)CCC(C)(c2nc(-c3ccc(C(=O)Nc4cc(C(F)(F)F)ccn4)cc3Cl)c3c(N)nccn23)CC1 (centres unmarked) [Example 133, 4-[8-amino-1-(2-chloro-4-{[4-(trifluoromethyl)pyridin-2-yl]carbamoyl}phenyl)imidazo[1,5-a]pyrazin-3-yl]-1,4-dimethylcyclohexane-carboxylic acid]
456 nM		10000 nM	CC(C)C1(C(=O)O)CCC(C)(c2nc(-c3ccc(C(=O)Nc4cc(C(F)(F)F)ccn4)cc3)c3c(N)nccn23)C1 (centres unmarked) [Example 146, 3-[8-amino-1-(4-{[4-(trifluoromethyl)pyridin-2-yl]carbamoyl}phenyl)imidazo[1,5-a]pyrazin-3-yl]-3-methyl-1-(1-methylethyl) cyclopentane-carboxylic acid]
1 nM	2440 nM		C[C@]1(C(=O)O)CC[C@H](N2CCO[C@@H](c3nc(-c4ccc(C(=O)Nc5cc(C(F)F)ccn5)cc4)c4c(N)ncc(Cl)n34)C2)CC1 [Example 195, trans-4-{(2R)-2-[8-amino-5-chloro-1-(4-{[4-(difluoromethyl)pyridin-2-yl]carbamoyl}phenyl)imidazo [1,5-a]pyrazin-3-yl]morpholin-4-yl}-1-methylcyclohexanecarboxylic acid]
